Holding throughout (assay type): in vivo
Assay [1] relates to fall armyworm (Spodoptera frugiperda). Nature of the assay: Test B: control of fall armyworm on corn (maize) plant, foliar spray. The note with it: sprayed at 50 ppm; 1-day-old larvae on corn (maize) plant; three replicates. Here is the method:
(§1) Test compounds were formulated using a solution containing 10% acetone, 90% water and 300 ppm X^77™ Spreader Lo-Foam Formula non-ionic surfactant containing alkylarylpolyoxyethylene, free fatty acids, glycols and isopropanol (Loveland Industries, Inc. Greeley, Colo., USA). The formulated compounds were applied in 1 mL of liquid through a SUJ2 atomizer nozzle with 1/8 JJ custom body (Spraying Systems Co. Wheaton, Ill., USA) positioned 1.27 cm (0.5 inches) above the top of each test unit. All experimental compounds in this test were sprayed at 50 ppm, and the test was replicated three times. After spraying of the formulated test compound, each test unit was allowed to dry for 1 h and then a black, screened cap was placed on top. The test units were held for 6 days in a growth chamber at 25° C. and 70% relative humidity. Plant feeding damage was then visually assessed based on foliage consumed and a pest mortality rating was also counted and calculated for each test unit.
For evaluating control of fall armyworm (Spodoptera frugiperda), the test unit consisted of a small open container with a 4-5-day-old corn (maize) plant inside. This was pre-infested (using a core sampler) with 10-15 1-day-old larvae on a piece of insect diet. Test compounds were formulated and sprayed at 50 ppm as described for Test A, and the test was replicated three times. After spraying, the test units were maintained in a growth chamber and then the control efficacy was rated for each test unit as described for Test A.

In assay [2] the test system is potato leafhopper (Empoasca fabae). Description: Test C: control of potato leafhopper through contact and/or systemic means on Soleil bean plant. The note with it: 144 h, sprayed at 250 ppm, adults on Soleil bean plant, held 6 days at 19-21° C., three replicates, read-out: control efficacy: mortality. On the procedure: as §1
For evaluating control of potato leafhopper (Empoasca fabae) through contact and/or systemic means, the test unit consisted of a small open container with a 5-6-day-old Soleil bean plant (primary leaves emerged) inside. White sand was added to the top of the soil and one of the primary leaves was excised prior to application. Test compounds were formulated and sprayed as described for Test A. All experimental compounds in these tests were sprayed at 250 ppm, and the test was replicated three times. After spraying, the test units were allowed to dry for 1 hour before they were post-infested with 5 potato leafhoppers (18-21-day-old adults). A black, screened cap was placed on the top of the cylinder. The test units were held for 6 days in a growth chamber at 19-21° C. and 50-70% relative humidity. The control efficacy of each test unit was then visually assessed by the insect mortality.

For assay [3], the system named is diamondback moth (Plutella xylostella). Description: Test A: control of diamondback moth on radish plant, foliar spray. The settings on record: sprayed at 50 ppm; neonate larvae on radish plant; held 6 days at 25° C.; three replicates.
Description: For evaluating control of diamondback moth (Plutella xylostella), the test unit consisted of a small open container with a 12-14-day-old radish plant inside. This was pre-infested with about 50 neonate larvae that were dispensed into the test unit via corn-cob grits using a bazooka inoculator. The larvae moved onto the test plant after being dispensed into the test unit.
as §1

Assay [4] concerns green peach aphid (Myzus persicae). Nature of the assay: Test E: control of green peach aphid through contact and/or systemic means on radish plant. The settings on record: 144 h, sprayed at 250 ppm, aphids on radish plant, held 6 days at 19-21° C., three replicates, read-out: control efficacy: mortality. On the procedure:
Test compounds were formulated using a solution containing 10% acetone, 90% water and 300 ppm X^77™ Spreader Lo-Foam Formula non-ionic surfactant containing alkylarylpolyoxyethylene, free fatty acids, glycols and isopropanol (Loveland Industries, Inc. Greeley, Colo., USA). The formulated compounds were applied in 1 mL of liquid through a SUJ2 atomizer nozzle with 1/8 JJ custom body (Spraying Systems Co. Wheaton, Ill., USA) positioned 1.27 cm (0.5 inches) above the top of each test unit. All experimental compounds in this test were sprayed at 50 ppm, and the test was replicated three times. After spraying of the formulated test compound, each test unit was allowed to dry for 1 h and then a black, screened cap was placed on top. The test units were held for 6 days in a growth chamber at 25° C. and 70% relative humidity. Plant feeding damage was then visually assessed based on foliage consumed and a pest mortality rating was also counted and calculated for each test unit. […]
Test compounds were formulated and sprayed as described for Test A. All experimental compounds in these tests were sprayed at 250 ppm, and the test was replicated three times. […] Each test unit was then visually assessed for insect mortality.

Assay [5] deals with silverleaf whitefly (Bemisia tabaci). Description: Test F: control of silverleaf whitefly on cotton plant. The note with it: 144 h, sprayed at 250 ppm, 2nd and 3rd instar nymphs on cotton plant, held 6 days, three replicates, read-out: control efficacy: mortality. On the procedure: For evaluating control of silverleaf whitefly (Bemisia tabaci), the test unit consisted of a 14-21-day-old cotton plant grown in Redi-earth® media (Scotts Co.) with at least two true leaves infested with 2nd and 3rd instar nymphs on the underside of the leaves.
Test compounds were formulated in no more than 2 mL of acetone and then diluted with water to 25-30 mL. The formulated compounds were applied using a flat fan air-assisted nozzle (Spraying Systems 122440) at 10 psi (69 kPa). Plants were sprayed to run-off on a turntable sprayer (patent publication EP-1110617-A1). All experimental compounds in this screen were sprayed at 250 ppm, and the test was replicated three times. After spraying of the test compound, the test units were held for 6 days in a growth chamber at 50-60% relative humidity and 28° C. daytime and 24° C. nighttime temperature. Then the leaves were removed and then dead and live nymphs were counted to calculate percent mortality.

The test system of assay [6] is western flower thrip (Frankliniella occidentalis). Nature of the assay: Test D: control of western flower thrip through contact and/or systemic means on Soleil bean plant. The note with it: sprayed at 250 ppm; adult thrips on Soleil bean plant; held 6 days at 25° C.; three replicates. On the procedure: as §1
For evaluating control of the western flower thrip (Frankliniella occidentalis) through contact and/or systemic means, the test unit consisted of a small open container with a 5-7-day-old Soleil Bean plant inside. […] A mortality rating was assessed along with a plant damage rating for each test unit.

Experimental findings from patent US8367584B2, “Naphthalene isoxazoline compounds for control of invertebrate pests” (E.I. du Pont de Nemours and Company, priority 2007, dated 2013) are described below.

Each structure is given as a SMILES string.

Usually mortality stands for the share of the test organisms that died.

As to `O=C(NCc1ccc(C2=NOC(c3cc(Cl)cc(Cl)c3)(C(F)(F)F)C2)c2ccccc12)C1CC1` (stereo not shown) [Compound 1, N-[[4-[5-(3,5-dichlorophenyl)-4,5-dihydro-5-(trifluoromethyl)-3-isoxazolyl]-1-naphthalenyl]methyl]cyclopropanecarboxamide], the “control efficacy (20% or less feeding damage or 80% or more mortality)” value in assay [1] and in assay [3] was “very good to excellent levels of control efficacy” in each case. In addition, the mortality at 250 ppm in assay [2] is at least 80%.

For the compound `CC(C)C(=O)NCc1ccc(C2=NOC(c3cc(Cl)cc(Cl)c3)(C(F)(F)F)C2)c2ccccc12` (stereo not shown) [Compound 2], the “control efficacy (20% or less feeding damage or 80% or more mortality)” value in assay [1] and in assay [3] was “very good to excellent levels of control efficacy” each time. Besides, the mortality at 250 ppm in assay [4], in assay [2] and in assay [5] was at least 80% throughout.

For `N#CC(NC(=O)C1CC1)c1ccc(C2=NOC(c3cc(Cl)cc(Cl)c3)(C(F)(F)F)C2)c2ccccc12` (stereo not shown) [Compound 3], the “control efficacy (20% or less feeding damage or 80% or more mortality)” value in assay [3] and in assay [6] was “very good to excellent levels of control efficacy” each time.

Take `CC(C)C(=O)NC(C)c1ccc(C2=NOC(c3cc(C(F)(F)F)cc(C(F)(F)F)c3)(C(F)(F)F)C2)c2ccccc12` (stereo not shown) [Compound 4]: the “control efficacy (20% or less feeding damage or 80% or more mortality)” value in assay [3] is listed as “very good to excellent levels of control efficacy”.

For `CC(C)C(=O)NCc1ccc(C2=NOC(c3cc(Cl)cc(C(F)(F)F)c3)(C(F)(F)F)C2)c2ccccc12` (stereo not shown) [Compound 5], the “control efficacy (20% or less feeding damage or 80% or more mortality)” value in assay [1] and in assay [3] was “very good to excellent levels of control efficacy” throughout. Also, the mortality at 250 ppm in assay [4], in assay [2] and in assay [5] was at least 80% each time.

For the compound `O=C(NCc1ccc(C2=NOC(c3cc(Cl)cc(C(F)(F)F)c3)(C(F)(F)F)C2)c2ccccc12)C1CC1` (stereo not shown) [Compound 6], the “control efficacy (20% or less feeding damage or 80% or more mortality)” value in assay [1] and in assay [3] was “very good to excellent levels of control efficacy” throughout. The mortality at 250 ppm in assay [2] is at least 80%.
